1 compound from patent publication US20260217699A1, “BERBERINE TAUROURSODEOXYCHOLATE COMPOSITIONS AND METHODS THEREOF” (SHENZHEN HIGHTIDE BIOPHARMACEUTICAL LTD., priority 2023, published 2026) can be followed below.

In test [1] the test system is TNF-α. Description: Elisa test of cerebrospinal fluid, TNF-α. Format: in vivo, Sprague-Dawley rats. The note with it: rat cerebrospinal fluid; BTUDC-H 1000 mg/kg p.o. Qd 21 days; Mean ± SEM, n=10; Model 271.022 ± 8.145; p<0.05 vs Model. An excerpt: The cerebrospinal fluid was directly extracted by inserting a needle through the foramen magnum, and the supernatant was collected after centrifugation for ELISA testing. The kit brand was Shanghai Enzyme Link. The product codes of IL-6, IL-1β, and TNF-α were m1064292, m1037361, and m1002859, respectively. Processed the sample according to the instructions of the ELISA detection kit, adjusted the blank well to zero, measured the absorbance (OD value) of each well sequentially at a wavelength of 450 nm, and calculated the sample concentration based on the standard curve and OD value. […]
Dosing volume: 10 mL/kg • 1. […] Histochemical test: After the behavioral test, the cerebrospinal fluid from each animal (N=10) was collected, centrifuged to collect the supernatant, and stored at −80° C. for Elisa test (IL-6, IL-1β, TNF-α), then the animals in each group (N=5) were randomly selected to take the modeling side of the striatum for the detection of neurotransmitters, and the rest of them (N=5) were subjected to cardiac perfusion, which was performed by the process of perfusion, fixation, sedimentation and slicing for immunofluorescence staining and photographed, and the number or area of signals were counted by ImageJ software. • 4. […]

Test [2] relates to 6-OHDA Stereotactic Injection Induced PD Rats. The experiment in a line: Balance beam test. The note with it: for Foot Slips Times / Passage Time: Mean ± SEM, N=10; for Foot Slips Times: Model 1.7 ± 0.2; for Passage Time: Model 10.9 ± 1.3. Format: in vivo, Sprague-Dawley rats. An excerpt: The rats were respiratory anesthetized with isoflurane; the head was fixed to ensure that there was no movement and the brain surface was adjusted to be flat; the head was shaved, and a skin incision was made along the sagittal suture to expose the fontanel point; the glass electrode was positioned to the fontanel, and the axes of the coordinate monitor were zeroed to locate the brain areas of the SN and the Str based on the coordinates, in which the SN: AP=−5.0 mm; ML=−1.9 mm; DV=−8.5 mm, and Str: AP=+0.5 mm; ML=−3.0 mm; DV=−6.0 mm. […]; slowly inserted the needle into the localized area of SN and Str, waited for 10 min, and then administered the drug of 6-OHDA at a rate of […] for 10 min, and each animal was given […] of each of SN and Str area, and then the needle was slowly withdrawn after the drug was administered for 10 min, and the PD rat model was established.
The rat was placed on a balance beam. The time was recorded it took for the rat to pass the balance beam as well as the number of foot slips (feet leave the top of the balance beam). The average of the two successful passing times and the number of foot slips were used as the evaluation criteria for the rat's locomotor balance ability. Information regarding beam test can also be found in the literature (Allbutt, et al. 2007 J Neurosci Methods 159(2):195-202; Fine, et al. 2014 Brain Res. 1574:96-104).
In this study, 16 Sprague Dawley (SD) male rats 180g-220g were used to establish a PD model by stereotactic unilateral injection of 6-OHDA in the substantia nigra (SN) and striatum (Str) brain areas after one week of acclimatization feeding and were randomly divided into 2 groups of 8 rats each. One group was dosed with the test compound BTUDC 500 mg/kg (QD, p.o.) and the other group was the Model group, which was given an equal volume of 0.5% CMC-Na (QD, p.o.) as the test compound group. The animals were administered once a day for 21 consecutive days starting from the second day after modeling to evaluate the tolerability and therapeutic potential of BTUDC in the 6-OHDA PD model.
Experimental Methods: Seventy 180-220g SD male rats were selected and fed for one week for accumulation, and the PD model was established by stereotactic unilateral injection of 6-OHDA in the Substantia Nigra (SN) and Striatum (Str) regions and were randomly divided into five groups according to their body weights including Madopar group (Madopar, 50 mg/kg), BTUDC-L group (BTUDC, 100 mg/kg), BTUDC-M group (BTUDC, 500 mg/kg), and BTUDC-H group (BTUDC, 1000 mg/kg), with 10 animals in each group. Another 10 SD male rats were taken for sham operation (only 4 μL of 0.9% NS containing 0.02% ascorbic acid was given to the SN and Str brain regions during modeling) as the Sham group. The drug was administered by gavage once daily continuously for 21 days starting on the second day of modeling (first day of dosing, D1). General observation was made during the dosing period. At the end of the administration, the test articles were evaluated for tolerance in this model and in behavioral apomorphine—asymmetric rotation test, beam test, rotarod test and grip strength test, immunofluorescence staining (TH, Ibal), and cerebrospinal fluid inflammatory factor assays to evaluate the pharmacodynamic effects of the test articles. Inflammatory factors tested included interleukin 6 (1L-6), inflammatory factor […], Tumor Necrosis Factor alpha (TNF-α), inflammatory assays were done in a total of 4 groups included Sham, Model, Madopar and BTUDC-H groups.

The mark [3] stands for this setting: BTUDC-H 1000 mg/kg p.o. Qd 21 days, p<0.001 vs Model.

As to `COc1ccc2cc3[n+](cc2c1OC)CCc1cc2c(cc1-3)OCO2.C[C@H](CCC(=O)NCCS(=O)(=O)[O-])[C@H]1CC[C@H]2[C@@H]3[C@@H](O)C[C@@H]4C[C@H](O)CC[C@]4(C)[C@H]3CC[C@]12C` [BTUDC, Berberine tauroursodeoxycholate], the “TNF-α Conc.” value in test [1] came to 250.424 ± 9.186 pg/mL. Moreover, in test [2] (500 mg/kg QD p.o. 21 days, Model 1.313 ± 0.3772, P < 0.001 vs Model), the “Beam Test Number of feet slips” value is given as 0.250 ± 0.0945. The “Beam Test Passing time” value in test [2] (500 mg/kg QD p.o. 21 days, Model 9.938 ± 1.8088, P < 0.001 vs Model) amounted to 3.563 ± 0.6228 s. Further, the “Foot Slips Times” value in test [2] (setting [3]) turned out to be 0.6 ± 0.2; in test [2] (BTUDC-L 100 mg/kg p.o. Qd 21 days, p<0.05 vs Model), 1.0 ± 0.3; in test [2] (BTUDC-M 500 mg/kg p.o. Qd 21 days, p<0.01 vs Model), 0.8 ± 0.2. Moreover, the “Passage Time” value in test [2] (setting [3]) is 4.8 ± 0.4 s; in test [2] (BTUDC-L 100 mg/kg p.o. Qd 21 days, p<0.01 vs Model), 8.0 ± 0.7 s; in test [2] (BTUDC-M 500 mg/kg p.o. Qd 21 days, p<0.001 vs Model), 6.4 ± 0.7 s.
